# Assay results reported in patent publication US10294202B2, “Pyrrolidinones as herbicides” (FMC Corporation, priority 2013, dated 2019).
# Assays:
# barnyardgrass [1] = test: Test B flooded paddy test; format: in vivo, Echinochloa crus-galli; details: 500 g ai/ha, Flood; scale of 0 to 100 where 0 is no effect and 100 is complete control
# Method in brief: (§1)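 2-leaf plants; flood 3 cm over soil; compound into paddy water; depth held. Greenhouse 13–15 d. Visual rating vs controls, 0 (no effect) to 100 (complete control); dash = not tested.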
# soybean = test: Test C pre-/postemergence herbicide test; format: in vivo, Glycine max
# Method in brief: (§2)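 Pre- and postemergence greenhouse screen. Preemergence treatment went onto freshly planted seeds in loam–sand soil; postemergence treatment went onto plants 2 to 18 cm tall at the 1- to 4-leaf stage in sphagnum peat/vermiculite medium. Scoring at 13 to 15 days used a 0–100 control scale.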
# sedge, umbrella = test: Test B flooded paddy test; format: in vivo, Cyperus difformis; details: 500 g ai/ha, Flood; scale of 0 to 100 where 0 is no effect and 100 is complete control
# Method in brief: as §1
# waterhemp = test: Test C pre-/postemergence herbicide test; format: in vivo, Amaranthus rudis
# Method in brief: as §2
# oat, wild = test: Test C pre-/postemergence herbicide test; format: in vivo, Avena fatua; details: Postemergence
# Method in brief: as §2
# corn = test: Test C pre-/postemergence herbicide test; format: in vivo, Zea mays
# Method in brief: as §2
# ducksalad = test: Test B flooded paddy test; format: in vivo, Heteranthera limosa; details: 500 g ai/ha, Flood; scale of 0 to 100 where 0 is no effect and 100 is complete control
# Method in brief: as §1
# pigweed = test: Test C pre-/postemergence herbicide test; format: in vivo, Amaranthus retroflexus
# Method in brief: as §2
# barnyardgrass [2] = test: Test C pre-/postemergence herbicide test; format: in vivo, Echinochloa crus-galli
# Method in brief: as §2
# ryegrass, Italian = test: Test C pre-/postemergence herbicide test; format: in vivo, Lolium multiflorum
# Method in brief: as §2
# wheat (winter wheat) = test: Test C pre-/postemergence herbicide test; format: in vivo, Triticum aestivum
# Method in brief: as §2
# ragweed = test: Test C pre-/postemergence herbicide test; format: in vivo, Ambrosia elatior
# Method in brief: as §2
# morningglory = test: Test C pre-/postemergence herbicide test; format: in vivo, Ipomoea coccinea
# Method in brief: as §2
# lambsquarters = test: Test C pre-/postemergence herbicide test; format: in vivo, Chenopodium album
# Method in brief: as §2
# galium = test: Test C pre-/postemergence herbicide test; format: in vivo, Galium aparine; details: Preemergence
# Method in brief: as §2
# [3] = Postemergence, 31 g ai/ha, scale 0 to 100 (0 no effect, 100 complete control)
# [4] = Postemergence, 62 g ai/ha, scale 0 (no effect) to 100 (complete control)
# [5] = Postemergence, 125 g ai/ha, scale 0 to 100 (0 no effect, 100 complete control)
# [6] = Postemergence, 250 g ai/ha, scale 0 to 100 (0 no effect, 100 complete control)
# [7] = Preemergence, 62 g ai/ha, scale 0 to 100 (0 no effect, 100 complete control)
# [8] = Preemergence, 125 g ai/ha, scale 0 to 100
# [9] = Preemergence, 31 g ai/ha, scale 0 to 100, 0 is no effect and 100 is complete control
compound,measurement,setting,value
O=C1NCC(c2cccc(C(F)(F)F)c2)C1C(=O)Nc1ccccc1Cl (centres unmarked) [Compound 312],"Plant response rating, Barnyardgrass",barnyardgrass [1],75
same,"Plant response rating, Soybean",soybean; [3],0
same,"Plant response rating, Soybean",soybean; [4],0
same,"Plant response rating, Soybean",soybean; [5],0
same,"Plant response rating, Soybean",soybean; [6],0
same,Soybean plant response rating,soybean; [7],0
same,"Plant response rating, Soybean",soybean; [8],0
same,"Plant response rating (scale of 0 to 100), Soybean","soybean; Preemergence, 250 g ai/ha",0
same,"Plant response rating, Sedge, Umbrella","sedge, umbrella",0
same,"Plant response rating, Waterhemp",waterhemp; [3],0
same,"Plant response rating, Waterhemp",waterhemp; [4],45
same,"Plant response rating, Waterhemp",waterhemp; [5],20
same,"Plant response rating, Waterhemp",waterhemp; [6],20
same,Waterhemp plant response rating,waterhemp; [7],45
same,"Plant response rating, Waterhemp",waterhemp; [8],65
same,"Plant response rating (scale of 0 to 100), Waterhemp","waterhemp; Preemergence, 250 g ai/ha",80
same,"Plant response rating, Oat, Wild","oat, wild; 31 g ai/ha, scale 0 to 100 (0 no effect, 100 complete control)",0
same,"Plant response rating, Oat, Wild","oat, wild; 62 g ai/ha, scale 0 (no effect) to 100 (complete control)",0
same,"Plant response rating, Oat, Wild","oat, wild; 125 g ai/ha, scale 0 to 100 (0 no effect, 100 complete control)",0
same,"Plant response rating, Oat, Wild","oat, wild; 250 g ai/ha, scale 0 to 100 (0 no effect, 100 complete control)",0
same,"Plant response rating, Corn",corn; [3],0
same,"Plant response rating, Corn",corn; [4],15
same,"Plant response rating, Corn",corn; [5],10
same,"Plant response rating, Corn",corn; [6],10
same,Corn plant response rating,corn; [9],10
same,Corn plant response rating,corn; [7],60
same,"Plant response rating, Corn",corn; [8],55
same,"Plant response rating (scale of 0 to 100), Corn","corn; Preemergence, 250 g ai/ha",70
same,"Plant response rating, Ducksalad",ducksalad,100
same,"Plant response rating, Pigweed",pigweed; [3],10
same,"Plant response rating, Pigweed",pigweed; [4],20
same,"Plant response rating, Pigweed",pigweed; [5],25
same,"Plant response rating, Pigweed",pigweed; [6],45
same,Pigweed plant response rating,pigweed; [9],25
same,Pigweed plant response rating,pigweed; [7],40
same,"Plant response rating, Pigweed",pigweed; [8],45
same,"Plant response rating (scale of 0 to 100), Pigweed","pigweed; Preemergence, 250 g ai/ha",55
same,"Plant response rating, Barnyardgrass",barnyardgrass [2]; [3],40
same,"Plant response rating, Barnyardgrass",barnyardgrass [2]; [4],70
same,"Plant response rating, Barnyardgrass",barnyardgrass [2]; [5],70
same,"Plant response rating, Barnyardgrass",barnyardgrass [2]; [6],75
same,Barnyardgrass plant response rating,barnyardgrass [2]; [9],85
same,Barnyardgrass plant response rating,barnyardgrass [2]; [7],90
same,"Plant response rating, Barnyardgrass","barnyardgrass [2]; Preemergence, 125 g ai/ha, scale 0 to 100 (0 no effect, 100 complete control)",90
same,"Plant response rating (scale of 0 to 100; 0 is no effect, 100 is complete control), Barnyardgrass","barnyardgrass [2]; Preemergence, 250 g ai/ha",95
same,"Plant response rating, Ryegrass, Italian","ryegrass, Italian; [3]",0
same,"Plant response rating, Ryegrass, Italian","ryegrass, Italian; [4]",0
same,"Plant response rating, Ryegrass, Italian","ryegrass, Italian; [5]",35
same,"Plant response rating, Ryegrass, Italian","ryegrass, Italian; [6]",10
same,"Ryegrass, Italian plant response rating","ryegrass, Italian; [7]",30
same,"Plant response rating, Ryegrass, Italian","ryegrass, Italian; [8]",35
same,"Plant response rating (scale of 0 to 100), Ryegrass, Italian","ryegrass, Italian; Preemergence, 250 g ai/ha",30
same,"Plant response rating, Wheat",wheat (winter wheat); [3],0
same,"Plant response rating, Wheat",wheat (winter wheat); [4],0
same,"Plant response rating, Wheat",wheat (winter wheat); [5],0
same,"Plant response rating, Wheat",wheat (winter wheat); [6],0
same,Wheat plant response rating,wheat (winter wheat); [7],30
same,"Plant response rating, Wheat",wheat (winter wheat); [8],60
same,"Plant response rating (scale of 0 to 100), Wheat","wheat (winter wheat); Preemergence, 250 g ai/ha",65
same,"Plant response rating, Ragweed",ragweed; [3],40
same,"Plant response rating, Ragweed",ragweed; [4],35
same,"Plant response rating, Ragweed",ragweed; [5],45
same,"Plant response rating, Ragweed",ragweed; [6],55
same,Ragweed plant response rating,ragweed; [7],0
same,"Plant response rating, Ragweed",ragweed; [8],50
same,"Plant response rating (scale of 0 to 100), Ragweed","ragweed; Preemergence, 250 g ai/ha",10
same,"Plant response rating, Morningglory",morningglory; [3],0
same,"Plant response rating, Morningglory",morningglory; [4],0
same,"Plant response rating, Morningglory",morningglory; [5],10
same,"Plant response rating, Morningglory",morningglory; [6],20
same,Morningglory plant response rating,morningglory; [9],0
same,Morningglory plant response rating,morningglory; [7],35
same,"Plant response rating, Morningglory",morningglory; [8],40
same,"Plant response rating (scale of 0 to 100), Morningglory","morningglory; Preemergence, 250 g ai/ha",55
same,"Plant response rating, Lambsquarters",lambsquarters; [3],65
same,"Plant response rating, Lambsquarters",lambsquarters; [4],75
same,"Plant response rating, Lambsquarters",lambsquarters; [5],95
same,"Plant response rating, Lambsquarters",lambsquarters; [6],55
same,Lambsquarters plant response rating,lambsquarters; [9],0
same,Lambsquarters plant response rating,lambsquarters; [7],0
same,"Plant response rating, Lambsquarters",lambsquarters; [8],50
same,"Plant response rating (scale of 0 to 100), Lambsquarters","lambsquarters; Preemergence, 250 g ai/ha",60
same,Galium plant response rating,"galium; 31 g ai/ha, scale 0 to 100, 0 is no effect and 100 is complete control",90
same,Galium plant response rating,"galium; 62 g ai/ha, scale 0 to 100 (0 no effect, 100 complete control)",0
same,"Plant response rating, Galium","galium; 125 g ai/ha, scale 0 to 100",5
same,"Plant response rating (scale of 0 to 100), Galium",galium; 250 g ai/ha,80
